Measurements from patent US20050239358A1, “Antimicrobial melamine resin and products made therefrom” (MICROBAN PRODUCTS COMPANY, priority 2002, published 2005).

Test system: not given
Assay: not given
Settings: at 20° C.; cited from earlier work

| Compound | vapor pressure |
| --- | --- |
| Oc1cc(Cl)ccc1Oc1ccc(Cl)cc1Cl [Triclosan, 2,4,4′-trichloro-2′-hydroxydiphenyl ether] | 4×10^−4 mm |

Test system: bacteria and fungi
Assay: antimicrobial efficacy of agents in melamine formaldehyde resin
Settings: agent for melamine resin; stated in words, no test described

| Compound | efficacy as antimicrobial agent |
| --- | --- |
| CCCCCCCCn1sc(Cl)c(Cl)c1=O [4,5-dichloro-2-N-octyl-3(2H)-isothiazolone] | efficacious |
| Cn1sc(Cl)cc1=O [chloro-2-methyl-3(2H)-isothiazolone] | efficacious |
| CCCCn1sc2ccccc2c1=O [N-butyl-1,2-benzisothiazolin-3-one] | efficacious |
| Oc1cc(Cl)ccc1Oc1ccc(Cl)cc1Cl [Triclosan, 2,4,4′-trichloro-2′-hydroxydiphenyl ether] | particularly efficacious |
| Cn1sccc1=O [methyl-3(2H)-isothiazolone] | efficacious |
| O=c1[nH]sc2ccccc12 [1,2-benzisothiazolin-3-one] | efficacious |
